The record followed here is PubChem BioAssay (NCI).

Some test systems named below: A549 NSCLC; COLO 205 colon; EKVX NSCLC; HCT-15 colon; HOP-62 NSCLC; KM12 colon; OVCAR-4 ovarian; SF-268 CNS; SF-295 CNS; SR leukemia.
Common to all, as to experiment: NCI tumour cell line growth inhibition, 48 h

Values joined by “and” are separate entries in the source; they are usually repeats but may differ in a detail not shown here. Identical values can stand only once.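 1) Cells in 96-well plates. 2) Compound, 48 h, 5 concentrations. 3) Linear interpolation between surrounding doses. 4) Unreached endpoint = highest concentration. GI50 marks 50% less growth. TGI marks complete inhibition of growth.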 Where a SMILES comes first, the peptide text is derived from it. [ ]: non-standard residue; d: D form. Orn = NCCC[CH](N)C(=O)O

As for `CCOC(=O)C1=C(N)Oc2cc(OC)ccc2C1c1ccc(F)c(F)c1` (centres undefined), the GI50 in the assay with A549 NSCLC is 2080 nM; in the assay on COLO 205 colon, 1050 nM; with EKVX NSCLC it was 3670 nM; with HCT-15 colon, 503 nM; in the assay with HOP-62 NSCLC, 2130 nM; in the assay on KM12 colon, 637 nM. In addition, the GI50 in the assay with OVCAR-4 ovarian is 3370 nM; in the assay on SF-268 CNS it was 8560 nM; with SF-295 CNS, 1910 nM; in the assay on SR leukemia, 533 nM. The TGI in the assay on A549 NSCLC is 19.4 µM; in the assay with COLO 205 colon, 8.97 µM; with EKVX NSCLC it was 17.9 µM; in the assay with HCT-15 colon, 14.3 µM; with HOP-62 NSCLC it was 19.4 µM; with KM12 colon it was 15.9 µM. Further, the TGI amounted to 18.6 µM with OVCAR-4 ovarian, 23.5 µM with SF-268 CNS, 15.5 µM with SF-295 CNS and 16.7 µM with SR leukemia.

For `COc1ccc2c(c1)N(CCO)C1=C(C(=O)OC1)C2c1cccc(Br)c1` (centres undefined), the GI50 in the assay with A549 NSCLC was 113 nM; in the assay with COLO 205 colon, 103 nM; in the assay with EKVX NSCLC, 694 nM; in the assay with HCT-15 colon, 65.9 nM; with HOP-62 NSCLC, 132 nM; in the assay with KM12 colon, 48.9 nM. For the same compound, the GI50 is 123 nM in the assay on OVCAR-4 ovarian, 86.4 nM in the assay on SF-268 CNS, 31.9 nM with SF-295 CNS and 82.6 nM with SR leukemia. Further, the TGI in the assay on A549 NSCLC was 19.6 µM; with COLO 205 colon, 0.464 µM; in the assay on EKVX NSCLC, above 100 µM; in the assay with HCT-15 colon it was above 100 µM; with HOP-62 NSCLC it was above 76.3 µM; in the assay on KM12 colon, 5.05 µM. In addition, the TGI is above 100 µM with OVCAR-4 ovarian, 21.3 µM with SF-268 CNS, 1.52 µM in the assay with SF-295 CNS and 55.7 µM with SR leukemia.

Regarding `COc1ccc(OC)c(/C=C/c2cnnc3ccccc23)c1`, the TGI in the assay on A549 NSCLC, with COLO 205 colon, with EKVX NSCLC, with HCT-15 colon, with HOP-62 NSCLC and with KM12 colon was above 10 µM each time. In addition, the TGI in the assay on OVCAR-4 ovarian is above 10 µM; in the assay on SF-268 CNS, above 10 µM; in the assay on SF-295 CNS it was above 10 µM; in the assay on SR leukemia, 5.14 µM.

Turning to `CCNCCNc1cc(C2CCCC2)c(C#N)c2nc3ccccc3n12`, the GI50 is 3590 nM in the assay with A549 NSCLC; 2000 nM with COLO 205 colon; 4730 nM with EKVX NSCLC; 3070 nM in the assay on HCT-15 colon; 3720 nM in the assay with HOP-62 NSCLC; 4640 nM in the assay with KM12 colon. For the same compound, the GI50 with OVCAR-4 ovarian was 3220 nM; with SF-268 CNS it was 3280 nM; in the assay with SF-295 CNS, 1700 nM; in the assay on SR leukemia, 1660 nM. In addition, the TGI was 8.22 µM in the assay on A549 NSCLC; 4.71 µM in the assay on COLO 205 colon; 21.5 µM in the assay on EKVX NSCLC; 12.9 µM in the assay with HCT-15 colon; 14.9 µM in the assay on HOP-62 NSCLC; 16.6 µM in the assay on KM12 colon. For the same compound, the TGI in the assay on OVCAR-4 ovarian amounted to 13 µM; with SF-268 CNS, 14 µM; in the assay on SF-295 CNS, 3.46 µM; with SR leukemia, 6.13 µM.

Consider `N#Cc1ccccc1/C=N/O`, for which the TGI is above 100 µM in the assay on A549 NSCLC; above 74.9 µM in the assay with COLO 205 colon; above 100 µM with EKVX NSCLC; above 56.3 µM in the assay with HCT-15 colon; above 100 µM in the assay with HOP-62 NSCLC; above 100 µM in the assay on KM12 colon. Also, the TGI in the assay with OVCAR-4 ovarian, in the assay on SF-268 CNS, with SF-295 CNS and with SR leukemia was above 100 µM throughout.

With `O=C(Nc1cc(Cl)cc(Cl)c1)c1ccc(NC2=C(Cl)C(=O)N(Cc3ccccc3)C2=O)cc1`, the GI50 was 10800 nM in the assay with A549 NSCLC; 28600 nM in the assay with COLO 205 colon; 13900 nM with EKVX NSCLC; 4680 nM in the assay with HCT-15 colon; 4210 nM in the assay on HOP-62 NSCLC; 6430 nM with KM12 colon. The GI50 in the assay on OVCAR-4 ovarian is 18600 nM; in the assay on SF-268 CNS it was 2550 nM; in the assay with SF-295 CNS, 2490 nM; with SR leukemia, 1510 nM. In addition, the TGI with A549 NSCLC was 32.4 µM; in the assay on COLO 205 colon it was above 100 µM; in the assay on EKVX NSCLC it was 28.7 µM; with HCT-15 colon, 19.7 µM; with HOP-62 NSCLC, 17.8 µM; in the assay on KM12 colon, 26.2 µM. Further, the TGI with OVCAR-4 ovarian was above 100 µM; in the assay with SF-268 CNS, 7.46 µM; in the assay with SF-295 CNS, 13.6 µM; in the assay on SR leukemia, 4.81 µM.

Regarding `O=C(Nc1cccc2ccccc12)c1cc2ccccc2cc1O`, the GI50 is 2520 nM in the assay with A549 NSCLC; 9760 nM in the assay with COLO 205 colon; 1770 nM with EKVX NSCLC; 3030 nM in the assay on HCT-15 colon; 3250 nM in the assay with HOP-62 NSCLC; 2730 nM in the assay on KM12 colon. The GI50 in the assay on OVCAR-4 ovarian is 2690 nM; in the assay on SF-268 CNS, 3470 nM; in the assay on SF-295 CNS it was 1830 nM; in the assay with SR leukemia it was 2570 nM. Further, the TGI was determined as 8.31 µM in the assay on A549 NSCLC; 23.7 µM with COLO 205 colon; 6.18 µM with EKVX NSCLC; 11.6 µM with HCT-15 colon; 18.1 µM in the assay on HOP-62 NSCLC; 8.01 µM in the assay with KM12 colon. The TGI in the assay on OVCAR-4 ovarian is 35.9 µM; in the assay on SF-268 CNS, 39.1 µM; with SF-295 CNS, 4.32 µM; in the assay on SR leukemia it was 9.73 µM.

With `CC(C)CC1NC(=O)C(CCCN)NC(=O)C(C(C)C)NC(=O)C2CCCN2C(=O)C(Cc2ccccc2)NC(=O)C(CC(C)C)NC(=O)C(CCCN)NC(=O)C(C(C)C)NC(=O)C2CCCN2C(=O)C(Cc2ccccc2)NC1=O` (centres undefined) (cyclo(FPV[Orn]LFPV[Orn]L); configuration not given here), the GI50 is 9.14 nM and 16.2 nM in the assay with A549 NSCLC; below 3.25 nM in the assay with COLO 205 colon; 10.5 nM and 17.5 nM in the assay on EKVX NSCLC; 213 nM and 436 nM in the assay on HCT-15 colon; 5.95 nM in the assay with HOP-62 NSCLC; 5.13 nM with KM12 colon. Also, the GI50 with OVCAR-4 ovarian is 13.3 nM; with SF-268 CNS it was 16.8 nM and 59.4 nM; in the assay with SF-295 CNS, 6.44 nM and 20.6 nM; in the assay with SR leukemia, 14.8 nM and 36 nM. The TGI with A549 NSCLC is 0.149 µM and 1.09 µM; in the assay with COLO 205 colon, 0.00419 µM; in the assay on EKVX NSCLC it was 0.442 µM and 1.23 µM; in the assay on HCT-15 colon, 4.06 µM and 4.7 µM; in the assay on HOP-62 NSCLC, 0.418 µM and 1.31 µM; in the assay on KM12 colon, 0.363 µM and 1.04 µM. Moreover, the TGI is 0.565 µM and 1.66 µM with SF-268 CNS; 0.0186 µM and 0.0735 µM in the assay with SF-295 CNS; 0.258 µM and 0.96 µM with SR leukemia.
